Reference: patent publication US9932637B2, “Genetic polymorphisms associated with cardiovascular disorders and drug response, methods of detection and uses thereof” (CELERA CORPORATION, priority 2003, dated 2018)
Where “and” joins values, the source holds several entries; their conditions need not be identical. Equal values may be shown once.

Tested on: patients with prior myocardial infarction (CARE study)
Experiment: CARE aligned analysis (prospective and case/control design, white males): association of genotypes with pravastatin efficacy (Tables 13, 15)
Format: in vivo, human
Conditions: for Pravastatin vs placebo odds ratio, 1 rare allele / Pravastatin vs placebo odds ratio, 2 rare alleles / 2 rare alleles n/total (%), pravastatin patients / Pravastatin vs placebo odds ratio, 0 rare alleles: CARE, F MI/SD/NF MI; for Pravastatin Patients (%) / Pravastatin Patients n/total: F&NF MI, WM
Method: The data presented in Table 8 based on an association of genotypes with pravastatin efficacy of the CARE samples were further analyzed and presented in Table 13. The further analysis was performed to align the data obtained from the analysis of the CARE samples, which was a prospective study, to the analysis of the WOSCOP samples, which was a case/control study. Table 13 also presents an analysis of the association of genotypes with pravastatin efficacy in the WOSCOPs samples. Relative to the analysis performed on the data presented in Table 8, there are two significant differences to determine if the SNP influenced pravastatin efficacy. Data obtained from the CARE samples were separated by study design into two groups, those in the prospective study design group and those in the case/control study design group. The original care study contained 16 protocol defined cardiovascular disease defined endpoints and 150 other phenotypes. […] The control groups used to compare the data were also divided into two groups, the “all possible” control group and the “cleaner” control group. […] Because the participants in the WOSCOPs trial were all white males, only data obtained from white males in the CARE study were analysed. Data from the “all possible” and “cleaner” controls were compared to data obtained from the cases in the prospective study design while only data from “cleaner” controls were compared to cases in the case/control study design. The data from the case/control cohorts were analysed using conditional logistic regression (as opposed to logistic regression used for the original anaylsis).
The anaylsis was refined as described for both Tables 13 and 14.

[1] = IL9 hCV3275199, 0 Rare Alleles, CARE Case/Control, All Possible controls
[2] = IL9 hCV3275199, 0 Rare Alleles, CARE Case/Control, Cleaner controls
[3] = IL9 hCV3275199, 0 Rare Alleles, CARE Prospective, All Possible controls
[4] = IL9 hCV3275199, 0 Rare Alleles, CARE Prospective, Cleaner controls
[5] = IL9 hCV3275199, 1 Rare Allele, CARE Case/Control, All Possible controls
[6] = IL9 hCV3275199, 1 Rare Allele, CARE Case/Control, Cleaner controls
[7] = IL9 hCV3275199, 1 Rare Allele, CARE Prospective, All Possible controls
[8] = IL9 hCV3275199, 1 Rare Allele, CARE Prospective, Cleaner controls
[9] = ITGA4 hCV7618856, 0 Rare Alleles, CARE Case/Control, Cleaner controls
[10] = ITGA4 hCV7618856, 1 Rare Allele, CARE Case/Control, All Possible controls
[11] = ITGA4 hCV7618856, 1 Rare Allele, CARE Case/Control, Cleaner controls
[12] = ITGA4 hCV7618856, 1 Rare Allele, CARE Prospective, All Possible controls
[13] = KDR hCV16192174, 0 Rare Alleles, CARE Case/Control, All Possible controls
[14] = KDR hCV16192174, 0 Rare Alleles, CARE Case/Control, Cleaner controls
[15] = KDR hCV16192174, 0 Rare Alleles, CARE Prospective, All Possible controls
[16] = KDR hCV16192174, 0 Rare Alleles, CARE Prospective, Cleaner controls
[17] = KDR hCV16192174, 1 Rare Allele, CARE Case/Control, All Possible controls
[18] = KDR hCV16192174, 1 Rare Allele, CARE Case/Control, Cleaner controls
[19] = KDR hCV16192174, 1 Rare Allele, CARE Prospective, All Possible controls
[20] = KDR hCV16192174, 1 Rare Allele, CARE Prospective, Cleaner controls
[21] = KDR hCV22271999, 0 Rare Alleles, CARE Case/Control, All Possible controls
[22] = KDR hCV22271999, 0 Rare Alleles, CARE Case/Control, Cleaner controls
[23] = KDR hCV22271999, 0 Rare Alleles, CARE Prospective, All Possible controls
[24] = KDR hCV22271999, 0 Rare Alleles, CARE Prospective, Cleaner controls
[25] = KDR hCV22271999, 1 Rare Allele, CARE Case/Control, All Possible controls
[26] = KDR hCV22271999, 1 Rare Allele, CARE Case/Control, Cleaner controls
[27] = KDR hCV22271999, 1 Rare Allele, CARE Prospective, All Possible controls
[28] = KDR hCV22271999, 1 Rare Allele, CARE Prospective, Cleaner controls

SMILES: CC[C@H](C)C(=O)O[C@H]1C[C@H](O)C=C2C=C[C@H](C)[C@H](CC[C@@H](O)C[C@@H](O)CC(=O)O)[C@H]21 [pravastatin]
- Pravastatin vs placebo odds ratio, 1 rare allele (IL4R hCV2769554, Case/Control): 0.74 and 0.64
- Pravastatin vs placebo odds ratio, 2 rare alleles (IL4R hCV2769554, Case/Control): 1.66 and 1.52
- Pravastatin Patients (%) [1]: (12.4%)
- Pravastatin Patients n/total [1]: 111/896
- Pravastatin Patients (%) [2]: (17.5%)
- Pravastatin Patients n/total [2]: 111/633
- Pravastatin Patients (%) [3]: (12.2%)
- Pravastatin Patients n/total [3]: 111/911
- Pravastatin Patients (%) [4]: (17.2%)
- Pravastatin Patients n/total [4]: 111/644
- Pravastatin Patients (%) [5]: (5.3%)
- Pravastatin Patients n/total [5]: 15/283
- Pravastatin Patients (%) [6]: (8.2%)
- Pravastatin Patients n/total [6]: 15/184
- Pravastatin Patients (%) [7]: (5.2%)
- Pravastatin Patients n/total [7]: 15/290
- Pravastatin Patients (%) [8]: (8.0%)
- Pravastatin Patients n/total [8]: 15/187
- Pravastatin Patients (%) (ITGA4 hCV7618856, 0 Rare Alleles, CARE Case/Control, All Possible controls): (10.1%)
- Pravastatin Patients (%) [9]: (14.7%)
- Pravastatin Patients n/total [9]: 120/817
- Pravastatin Patients (%) (ITGA4 hCV7618856, 0 Rare Alleles, CARE Prospective, All Possible controls): (10.0%)
- Pravastatin Patients (%) [10]: (25.0%)
- Pravastatin Patients n/total [10]: 5/20
- Pravastatin Patients (%) [11]: (31.3%)
- Pravastatin Patients n/total [11]: 5/16
- Pravastatin Patients (%) [12]: (23.8%)
- Pravastatin Patients n/total [12]: 5/21
- 2 rare alleles n/total (%), pravastatin patients (ITGAE hCV1243283, Case/Control): (8.0%)
- Pravastatin vs placebo odds ratio, 0 rare alleles (ITGAE hCV1243283, Case/Control): 0.79
- Pravastatin vs placebo odds ratio, 1 rare allele (ITGAE hCV1243283, Case/Control): 0.84
- Pravastatin vs placebo odds ratio, 2 rare alleles (ITGAE hCV1243283, Case/Control): 0.24
- Pravastatin Patients (%) [13]: (9.0%)
- Pravastatin Patients n/total [13]: 87/971
- Pravastatin Patients (%) [14]: (13.1%)
- Pravastatin Patients n/total [14]: 87/666
- Pravastatin Patients (%) [15]: (8.8%)
- Pravastatin Patients n/total [15]: 87/985
- Pravastatin Patients (%) [16]: (12.9%)
- Pravastatin Patients n/total [16]: 87/675
- Pravastatin Patients (%) [17]: (17.2%)
- Pravastatin Patients n/total [17]: 39/227
- Pravastatin Patients (%) [18]: (23.9%)
- Pravastatin Patients n/total [18]: 39/163
- Pravastatin Patients (%) [19]: (16.6%)
- Pravastatin Patients n/total [19]: 39/235
- Pravastatin Patients (%) [20]: (23.2%)
- Pravastatin Patients n/total [20]: 39/168
- Pravastatin vs placebo odds ratio, 0 rare alleles (KDR hCV16192174, Case/Control): 0.66 and 0.58
- Pravastatin vs placebo odds ratio, 1 rare allele (KDR hCV16192174, Case/Control): 1.68
- Pravastatin vs placebo odds ratio, 2 rare alleles (KDR hCV16192174, Case/Control): 0.41 and 0.35
- 2 rare alleles n/total (%), pravastatin patients (KDR hCV16192174, Prospective): (10.0%)
- Pravastatin vs placebo odds ratio, 0 rare alleles (KDR hCV16192174, Prospective): 0.61
- Pravastatin vs placebo odds ratio, 1 rare allele (KDR hCV16192174, Prospective): 1.41
- Pravastatin vs placebo odds ratio, 2 rare alleles (KDR hCV16192174, Prospective): 0.30
- Pravastatin Patients (%) [21]: (9.0%)
- Pravastatin Patients n/total [21]: 87/969
- Pravastatin Patients (%) [22]: (13.1%)
- Pravastatin Patients n/total [22]: 87/665
- Pravastatin Patients (%) [23]: (8.9%)
- Pravastatin Patients n/total [23]: 87/983
- Pravastatin Patients (%) [24]: (12.9%)
- Pravastatin Patients n/total [24]: 87/674
- Pravastatin Patients (%) [25]: (17.3%)
- Pravastatin Patients n/total [25]: 39/226
- Pravastatin Patients (%) [26]: (24.1%)
- Pravastatin Patients n/total [26]: 39/162
- Pravastatin Patients (%) [27]: (16.7%)
- Pravastatin Patients n/total [27]: 39/234
- Pravastatin Patients (%) [28]: (23.4%)
- Pravastatin Patients n/total [28]: 39/167
